# Source: US20110275583A1, “Synergistic active compound combinations” (priority 2010, published 2011)
# Like-named read-outs stand apart in the source and are kept apart here.
# Key:
# Format in all cases: in vivo
# [1] = test system: armyworm (Spodoptera frugiperda); assay: Spodoptera frugiperda larvae test (sprayed cabbage leaves); settings: Spodoptera frugiperda, single active compound
# Source text: (§1) The expected action for a given combination of two active compounds can be calculated as follows, using the formula of S. R. Colby, Weeds 15 (1967), 20-22: • If • X is the kill rate, expressed as % of the untreated control, when employing active compound A at an application rate of m g/ha or in a concentration of in ppm, • Y is the kill rate, expressed as % of the untreated control, when employing active compound B at an application rate of n g/ha or in a concentration of n ppm and • E is the kill rate, expressed as % of the untreated control, when employing active compounds A and B at application rates of m and n g/ha or in a concentration of m and n ppm, • then
# (§2) If the actual kill rate exceeds the calculated value, the action of the combination is superadditive, i.e. a synergistic effect is present. In this case, the actually observed kill rate must exceed the value calculated using the above formula for the expected kill rate (E).
# (§3) Solvent: 78 parts by weight of acetone • • 1.5 parts by weight of dimethylformamide
# (§4) Emulsifier: 0.5 part by weight of alkylaryl polyglycol ether
# (§5) To produce a suitable preparation of active compound, 1 part by weight of active compound is mixed with the stated amounts of solvent and emulsifier, and the concentrate is diluted with emulsifier-containing water to the desired concentration.
# Cabbage leaves (Brassica oleracea) are treated by being sprayed with the preparation of active compound of the desired concentration and are populated with the armyworm (Spodoptera frugiperda) while the leaves are still moist.
# After the desired period of time, the kill in % is determined. 100% means that all caterpillars have been killed; 0% means that none of the caterpillars have been killed. The kill rates determined are entered, into Colby's formula.
# [2] = test system: green peach aphid (Myzus persicae); assay: Myzus persicae test (spray treatment of infested cabbage leaves)
# Source text: as §1, §2, §3, §4, §5
# Cabbage leaves (Brassica oleracea) which are heavily infested by the green peach aphid (Myzus persicae) are treated by spraying with the active compound preparation of the desired concentration.
# After the desired period of time, the kill in % is determined. 100% means that all of the aphids have been killed; 0% means that none of the aphids have been killed. The kill rates determined are entered into Colby's formula.
# [3] = test system: larvae of the mustard beetle (Phaedon cochleariae); assay: Phaedon cochleariae larvae test (sprayed cabbage leaves); settings: single active compound
# Source text: as §1, §2, §3, §4, §5
# Cabbage leaves (Brassica oleracea) are treated by spraying with the active compound preparation of the desired concentration and populated with larvae of the mustard beetle (Phaedon cochleariae) while the leaves are still moist.
# After the desired period of time, the kill in % is determined. 100% means that all beetle larvae have been killed; 0% means that none of the beetle larvae have been killed. The kill rates determined are entered into Colby's formula.
# [4] = test system: greenhouse red spider mite (Tetranychus urticae); assay: Tetranychus test, OP-resistant/spray treatment (bean leaf discs); settings: single active compound
# Source text: as §1, §2, §3, §4, §5
# Discs of bean leaves (Phaseolus vulgaris) which are infested by all stages of the greenhouse red spider mite (Tetranychus urticae) are sprayed with an active compound preparation of the desired concentration.
# After the desired period of time, the effect in % is determined. 100% means that all of the spider mites have been killed; 0% means that none of the spider mites have been killed.
# [5] = 48 h, 2 d, read-out: Kill in % after 2 d
# [6] = Myzus persicae, 144 h, single active compound, 6 d, read-out: Kill in % after 6 d
# [7] = Myzus persicae, 24 h, after 1 d, read-out: Kill in % after 1d
# [8] = Phaedon cochleariae, 144 h, 20 g/ha, 6 d, read-out: Kill in % after 6 d
# [9] = Phaedon cochleariae, 144 h, 6 d, read-out: Kill in % after 6 d
# [10] = Tetranychus urticae, foliar, 144 h, 6 d, read-out: Kill in % after 6 d
# [11] = Tetranychus urticae, foliar, 144 h, 4 g/ha, 6 d, read-out: Kill in % after 6 d
# [12] = Myzus persicae, 144 h, 0.16 g/ha, single active compound, 6 d, read-out: Kill in % after 6 d
# [13] = 144 h, 6 d, read-out: Kill in % after 6 d
# [14] = Tetranychus urticae, foliar, 144 h, 20 g/ha, 6 d, read-out: Kill in % after 6 d
# [15] = Tetranychus urticae, foliar, 48 h, 4 g/ha, 2 d, read-out: Kill in % after 2 d
# [16] = Phaedon cochleariae, 48 h, 20 g/ha, 2 d, read-out: Kill in % after 2 d
# [17] = Tetranychus urticae, foliar, 48 h, 2 d, read-out: Kill in % after 2 d
# [18] = Myzus persicae, 24 h, 0.16 g/ha, after 1 d, read-out: Kill in % after 1d
compound,measurement,setting,value
N#Cc1ccc(CC(=NNC(=O)Nc2ccc(OC(F)(F)F)cc2)c2cccc(C(F)(F)F)c2)cc1 (mixture of isomers) [metaflumizone],pest or weed control at 100 g/ha,[1]; [5],0%
same,pest or weed control at 4 g/ha,[2]; [6],0%
Cc1c(F)c(F)c(COC(=O)[C@@H]2[C@H](/C=C(\Cl)C(F)(F)F)C2(C)C)c(F)c1F (racemic) [tefluthrin],pest or weed control at 4 g/ha,[2]; [7],70%
same,pest or weed control at 20 g/ha,[3]; [8],33%
"Cc1cc(F)c(-n2nc(C(F)(F)F)nc2N)cc1[S+]([O-])CC(F)(F)F (stereo not shown) [1-{2-fluoro-4-methyl-5-[(2,2,2-trifluoroethyl)sulphinyl]phenyl}-3-(trifluoromethyl)-1H-1,2,4-triazole-5-amine]",pest or weed control at 100 g/ha,[3]; [9],0%
same,pest or weed control at 0.8 g/ha,[4]; [10],0%
same,pest or weed control at 4 g/ha,[4]; [11],80%
"O=C1C=C(N(Cc2ccc(Cl)nc2)CC(F)F)CO1 [4-{[(6-chloropyrid-3-yl)methyl](2,2-difluoroethyl)amino}furan-2(5H)-one]",pest or weed control at 4 g/ha,[2]; [7],70%
C/C(=N\C#N)N(C)Cc1ccc(Cl)nc1 [acetamiprid],pest or weed control at 0.16 g/ha,[2]; [12],0%
same,pest or weed control at 20 g/ha,[3]; [8],0%
CC1(C)C(/C=C/C(=O)OC(C(F)(F)F)C(F)(F)F)C1C(=O)OC(C#N)c1cccc(Oc2ccccc2)c1 (stereo not shown) [acrinathrin],pest or weed control at 0.8 g/ha,"[1]; 144 h, 0.8 g/ha, 6 d, read-out: Kill in % after 6 d",0%
CC(C)N1C(=O)N(c2ccccc2)CS/C1=N\C(C)(C)C [buprofezin],pest or weed control at 500 g/ha,"[2]; Myzus persicae, 144 h, 500 g/ha, single active compound, 6 d, read-out: Kill in % after 6 d",0%
CNC(=O)Oc1cccc2c1OC(C)(C)C2 [carbofuran],pest or weed control at 4 g/ha,[1]; [13],0%
CCOCn1c(-c2ccc(Cl)cc2)c(C#N)c(Br)c1C(F)(F)F [chlorfenapyr],pest or weed control at 100 g/ha,[1]; [5],50%
CC1(C)C(C=C(Cl)Cl)C1C(=O)OC(C#N)c1cccc(Oc2ccccc2)c1 (stereo not shown) [cypermethrin],pest or weed control at 0.8 g/ha,[2]; [7],70%
same,pest or weed control at 4 g/ha,"[3]; Phaedon cochleariae, 48 h, 4 g/ha, 2 d, read-out: Kill in % after 2 d",17%
same,pest or weed control at 20 g/ha,[4]; [14],0%
CC(C)c1cc(Oc2ccccc2)cc(C(C)C)c1NC(=S)NC(C)(C)C [diafenthiuron],pest or weed control at 20 g/ha,[2]; [7],0%
same,pest or weed control at 4 g/ha,[4]; [15],0%
CN/C(=N\[N+](=O)[O-])NCC1CCOC1 (stereo not shown) [dinotefuran],pest or weed control at 4 g/ha,[2]; [7],0%
same,pest or weed control at 4 g/ha,[2]; [6],0%
same,pest or weed control at 20 g/ha,[3]; [16],17%
CC[S+]([O-])c1c(C#N)nn(-c2c(Cl)cc(C(F)(F)F)cc2Cl)c1N (stereo not shown) [ethiprole],pest or weed control at 20 g/ha,[2]; [7],0%
same,pest or weed control at 0.16 g/ha,"[3]; Phaedon cochleariae, 144 h, 0.16 g/ha, 6 d, read-out: Kill in % after 6 d",0%
same,pest or weed control at 20 g/ha,[4]; [14],0%
"Cc1nn(C)c(Oc2ccccc2)c1C=NOCc1ccc(C(=O)OC(C)(C)C)cc1 [fenpyroximate, Fenpyroximate]",pest or weed control at 20 g/ha,[3]; [16],0%
"Cc1cc(C(F)(C(F)(F)F)C(F)(F)F)ccc1NC(=O)c1cccc(I)c1C(=O)NC(C)(C)CS(C)(=O)=O [flubendiamide, Flubendiamide]",pest or weed control at 4 g/ha,[1]; [13],33%
same,pest or weed control at 0.8 g/ha,[2]; [6],0%
O=C(NC(=O)c1c(F)cccc1F)Nc1ccc(Oc2ccc(C(F)(F)F)cc2Cl)cc1F [flufenoxuron],pest or weed control at 20 g/ha,[1]; [13],33%
CC1(C)[C@H](/C=C(\Cl)C(F)(F)F)[C@@H]1C(=O)O[C@H](C#N)c1cccc(Oc2ccccc2)c1 [gamma-cyhalothrin],pest or weed control at 0.032 g/ha,"[2]; Myzus persicae, 24 h, 0.032 g/ha, after 1 d, read-out: Kill in % after 1d",0%
same,pest or weed control at 0.8 g/ha,[4]; [17],0%
O=[N+]([O-])/N=C1\NCCN1Cc1ccc(Cl)nc1 [imidacloprid],pest or weed control at 0.16 g/ha,[2]; [18],0%
same,pest or weed control at 20 g/ha,[3]; [8],33%
COC(=O)N(C(=O)N1COC2(C(=O)OC)Cc3cc(Cl)ccc3C2=N1)c1ccc(OC(F)(F)F)cc1 (stereo not shown) [indoxacarb],pest or weed control at 100 g/ha,[1]; [5],50%
same,pest or weed control at 0.8 g/ha,"[3]; Phaedon cochleariae, 144 h, 0.8 g/ha, 6 d, read-out: Kill in % after 6 d",0%
O=C(NC(=O)c1c(F)cccc1F)Nc1cc(Cl)c(OC(F)(F)C(F)C(F)(F)F)cc1Cl (stereo not shown) [lufenuron],pest or weed control at 4 g/ha,[1]; [13],0%
same,pest or weed control at 100 g/ha,[3]; [9],33%
COc1cccc(C(=O)NN(C(=O)c2cc(C)cc(C)c2)C(C)(C)C)c1C [methoxyfenozide],pest or weed control at 20 g/ha,[1]; [5],33%
O=C(NC(=O)c1c(F)cccc1F)Nc1ccc(OC(F)(F)C(F)OC(F)(F)F)c(Cl)c1 (stereo not shown) [novaluron],pest or weed control at 100 g/ha,[3]; [9],0%
CC(=O)N1C(=O)N(NCc2cccnc2)Cc2cc(C(F)(C(F)(F)F)C(F)(F)F)ccc21 [pyrifluquinazone],pest or weed control at 100 g/ha,"[4]; Tetranychus urticae, foliar, 144 h, 100 g/ha, 6 d, read-out: Kill in % after 6 d",0%
CCC(C)(C)C(=O)OC1=C(c2ccc(Cl)cc2Cl)C(=O)OC12CCCCC2 [spirodiclofen],pest or weed control at 4 g/ha,[2]; [6],0%
same,pest or weed control at 0.8 g/ha,[4]; [10],20%
Cc1cc(C)c(C2=C(OC(=O)CC(C)(C)C)C3(CCCC3)OC2=O)c(C)c1 [spiromesifen],pest or weed control at 0.8 g/ha,[2]; [6],0%
same,pest or weed control at 20 g/ha,"[4]; Tetranychus urticae, foliar, 48 h, 20 g/ha, 2 d, read-out: Kill in % after 2 d",0%
CCOC(=O)OC1=C(c2cc(C)ccc2C)C(=O)N[C@]12CC[C@@H](OC)CC2 [spirotetramat],pest or weed control at 0.16 g/ha,[2]; [12],0%
CC(c1ccc(C(F)(F)F)nc1)S(C)(=O)=NC#N (stereo not shown) [sulfoxaflor],pest or weed control at 4 g/ha,[4]; [11],0%
"CCc1nn(C)c(C(=O)NCc2ccc(C(C)(C)C)cc2)c1Cl [tebufenpyrad, Tebufenpyrad]",pest or weed control at 20 g/ha,[2]; [7],0%
same,pest or weed control at 100 g/ha,[3]; [9],0%
same,pest or weed control at 0.8 g/ha,[4]; [17],0%
same,pest or weed control at 4 g/ha,[4]; [15],70%
N#C/N=C1\SCCN1Cc1ccc(Cl)nc1 [thiacloprid],pest or weed control at 0.16 g/ha,[2]; [18],0%
same,pest or weed control at 0.16 g/ha,[2]; [12],0%
same,pest or weed control at 20 g/ha,[3]; [8],0%
CN1COCN(Cc2cnc(Cl)s2)/C1=N/[N+](=O)[O-] [thiamethoxam],pest or weed control at 0.16 g/ha,[2]; [18],0%
same,pest or weed control at 0.16 g/ha,[2]; [12],0%
same,pest or weed control at 20 g/ha,[3]; [8],50%
CS/C(C)=N\OC(=O)N(C)SN(C)C(=O)O/N=C(\C)SC [thiodicarb],pest or weed control at 100 g/ha,"[2]; Myzus persicae, 24 h, 100 g/ha, after 1 d, read-out: Kill in % after 1d",0%
CC1(C)[C@H](C=C(Cl)Cl)[C@H]1C(=O)OCc1c(F)c(F)cc(F)c1F [transfluthrin],pest or weed control at 4 g/ha,[1]; [13],33%
O=C(NC(=O)c1ccccc1Cl)Nc1ccc(OC(F)(F)F)cc1 [triflumuron],pest or weed control at 4 g/ha,[1]; [13],17%
abamectin,Kill in % after 1d,"[2]; 0.16 g/ha, after 1 d",0%
same,Kill in % after 6 d,"[2]; 0.16 g/ha, single active compound, 6 d",0%
same,Kill in % after 6 d,"[3]; 0.16 g/ha, 6 d",0%
same,Kill in % after 2 d,"[4]; 4 g/ha, 2 d",0%
milbemectin,Kill in % after 6 d,"[3]; 20 g/ha, 6 d",0%
spinetoram,Kill in % after 2 d,"[3]; 4 g/ha, 2 d",50%
spinosad,Kill in % after 2 d,"[3]; 4 g/ha, 2 d",33%
same,Kill in % after 6 d,"[4]; 20 g/ha, 6 d",80%
